In PMC3527126 (Endocrine-related cancer, 2011):

Biological target: PKCδ (Homo sapiens, UniProt Q05655)
Assay: Omnia fluorescent
Type: biochemical

Sequence of PKCδ (Q05655 whole entry): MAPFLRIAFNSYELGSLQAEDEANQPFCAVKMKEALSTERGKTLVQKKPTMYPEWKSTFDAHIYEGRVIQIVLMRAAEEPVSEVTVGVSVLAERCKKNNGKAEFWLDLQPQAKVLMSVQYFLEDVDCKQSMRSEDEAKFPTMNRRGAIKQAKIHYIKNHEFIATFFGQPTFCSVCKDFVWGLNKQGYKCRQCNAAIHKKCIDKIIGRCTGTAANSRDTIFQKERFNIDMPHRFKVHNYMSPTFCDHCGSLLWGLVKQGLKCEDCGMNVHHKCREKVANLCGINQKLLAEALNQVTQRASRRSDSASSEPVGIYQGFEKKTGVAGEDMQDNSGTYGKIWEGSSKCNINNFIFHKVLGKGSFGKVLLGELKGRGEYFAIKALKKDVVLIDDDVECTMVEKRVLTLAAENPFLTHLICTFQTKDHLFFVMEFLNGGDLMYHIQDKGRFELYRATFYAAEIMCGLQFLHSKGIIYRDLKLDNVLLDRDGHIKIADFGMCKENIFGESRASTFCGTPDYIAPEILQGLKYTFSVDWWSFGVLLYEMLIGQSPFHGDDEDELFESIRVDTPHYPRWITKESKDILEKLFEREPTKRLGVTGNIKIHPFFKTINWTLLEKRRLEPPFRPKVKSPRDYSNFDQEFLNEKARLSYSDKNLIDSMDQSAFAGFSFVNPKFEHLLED

Compound `CC(=O)c1c(O)c(C)c(O)c(Cc2c(O)c3c(c(C(=O)/C=C/c4ccccc4)c2O)OC(C)(C)C=C3)c1O` [rottlerin] has an IC50 of 200 nM.
